Values of other authors as cited in US11857566B2, “Sulfonated polystyrene derivative for use in the treatment and/or prophylaxis of cat flu” (UNIWERSYTET JAGIELLONSKI, priority 2018, dated 2024).

Key:
[1] = test system: FCV
[2] = in vivo
[3] = test system: FHV

OC(c1cc(C(F)(F)F)nc2c(C(F)(F)F)cccc12)C1CCCCN1 (stereo not drawn) [mefloquine]
in vitro antiviral activity against FCV [1]: very high in vitro antiviral activity

CC(=O)OCC(CCn1cnc2cnc(N)nc21)COC(C)=O [famciclovir]
safety in treatment and prophylaxis of FHV infection in cats [2]: has been shown to be safe

[Cl-].[Li+] [lithium chloride]
in vitro antiviral activity against FCV [1]: very high in vitro antiviral activity

NC(=O)c1ncn([C@@H]2O[C@H](CO)[C@@H](O)[C@H]2O)n1 [ribavirin]
in vitro antiviral activity against FCV [1]: inhibits FCV infection in vitro

CC(C)[C@H](N)C(=O)OCCOCn1cnc2c(=O)[nH]c(N)nc21 [VCV, Valaciclovir]
symptoms of the disease in cats who took the drug ([3]; in vivo): did not improve symptoms of the disease | adverse effects in cats [2]: many adverse effects, such as bone marrow suppression or liver and kidney necrosis leading to animal death

Nc1nc2c(ncn2COCCO)c(=O)[nH]1 [acyclovir]
bioavailability in cats (in vivo): low | activity in cats ([3]; compared with HSV-1 in humans): did not show equally high activity

Nc1nc2c(ncn2CCC(CO)CO)c(=O)[nH]1 [PCV, penciclovir]
concentration of PCV in cats (after famciclovir): much lower than expected
